Results on 16 compounds are retold here after BindingDB's records for doi:10.1007/pl00005315 (Eli Lilly, 1999).

Assay [1] deals with 5-hydroxytryptamine receptor 2A (Homo sapiens, UniProt P28223).
Assay [2] deals with 5-hydroxytryptamine receptor 2B (Rattus norvegicus, UniProt P30994).
Assay [3] has as its target 5-hydroxytryptamine receptor 2B (Homo sapiens, UniProt P41595).
The target of assay [4] is T1, 5-hydroxytryptamine receptor 2C (Homo sapiens, UniProt P28335).
T1 sequence (P28335 whole entry): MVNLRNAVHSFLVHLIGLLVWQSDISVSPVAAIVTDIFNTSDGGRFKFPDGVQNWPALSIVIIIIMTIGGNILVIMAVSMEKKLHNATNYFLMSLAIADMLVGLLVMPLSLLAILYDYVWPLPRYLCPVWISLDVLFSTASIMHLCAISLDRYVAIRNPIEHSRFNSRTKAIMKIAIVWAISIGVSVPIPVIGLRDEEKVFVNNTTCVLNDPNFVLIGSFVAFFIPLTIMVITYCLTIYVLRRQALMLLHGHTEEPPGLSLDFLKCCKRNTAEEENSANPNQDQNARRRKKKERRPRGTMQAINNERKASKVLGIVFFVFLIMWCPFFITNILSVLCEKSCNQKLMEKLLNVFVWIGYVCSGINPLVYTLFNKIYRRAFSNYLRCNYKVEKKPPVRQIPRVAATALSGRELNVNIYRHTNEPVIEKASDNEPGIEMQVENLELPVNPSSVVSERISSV

Chain of 5-hydroxytryptamine receptor 2B (Homo sapiens, UniProt P41595) (P41595 whole entry): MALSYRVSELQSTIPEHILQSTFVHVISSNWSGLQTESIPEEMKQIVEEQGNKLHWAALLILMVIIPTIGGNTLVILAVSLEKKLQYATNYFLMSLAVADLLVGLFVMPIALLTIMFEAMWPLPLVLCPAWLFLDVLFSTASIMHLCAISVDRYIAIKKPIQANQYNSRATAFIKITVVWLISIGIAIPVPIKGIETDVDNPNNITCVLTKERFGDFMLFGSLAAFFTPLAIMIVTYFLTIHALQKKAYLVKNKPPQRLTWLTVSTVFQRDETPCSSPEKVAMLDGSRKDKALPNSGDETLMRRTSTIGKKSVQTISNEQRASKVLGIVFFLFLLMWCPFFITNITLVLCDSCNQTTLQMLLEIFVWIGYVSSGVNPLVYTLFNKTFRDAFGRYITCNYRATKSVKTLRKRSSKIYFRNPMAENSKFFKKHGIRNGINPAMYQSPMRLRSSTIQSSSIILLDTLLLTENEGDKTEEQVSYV
Chain of 5-hydroxytryptamine receptor 2A (P28223 whole entry): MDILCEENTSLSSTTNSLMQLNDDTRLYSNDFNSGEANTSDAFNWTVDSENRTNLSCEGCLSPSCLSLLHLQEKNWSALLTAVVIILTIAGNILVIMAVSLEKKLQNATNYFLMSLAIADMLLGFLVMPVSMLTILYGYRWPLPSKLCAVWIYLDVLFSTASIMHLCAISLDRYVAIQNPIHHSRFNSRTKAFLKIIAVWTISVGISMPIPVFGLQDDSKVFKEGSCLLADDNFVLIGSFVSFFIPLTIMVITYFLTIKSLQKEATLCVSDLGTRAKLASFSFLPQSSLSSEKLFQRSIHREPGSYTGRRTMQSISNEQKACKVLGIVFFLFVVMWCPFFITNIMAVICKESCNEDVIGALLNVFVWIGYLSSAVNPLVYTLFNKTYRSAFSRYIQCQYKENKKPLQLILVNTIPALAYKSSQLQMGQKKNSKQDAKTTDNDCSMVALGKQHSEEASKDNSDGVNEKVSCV
Chain of 5-hydroxytryptamine receptor 2B (Rattus norvegicus, UniProt P30994) (P30994 whole entry): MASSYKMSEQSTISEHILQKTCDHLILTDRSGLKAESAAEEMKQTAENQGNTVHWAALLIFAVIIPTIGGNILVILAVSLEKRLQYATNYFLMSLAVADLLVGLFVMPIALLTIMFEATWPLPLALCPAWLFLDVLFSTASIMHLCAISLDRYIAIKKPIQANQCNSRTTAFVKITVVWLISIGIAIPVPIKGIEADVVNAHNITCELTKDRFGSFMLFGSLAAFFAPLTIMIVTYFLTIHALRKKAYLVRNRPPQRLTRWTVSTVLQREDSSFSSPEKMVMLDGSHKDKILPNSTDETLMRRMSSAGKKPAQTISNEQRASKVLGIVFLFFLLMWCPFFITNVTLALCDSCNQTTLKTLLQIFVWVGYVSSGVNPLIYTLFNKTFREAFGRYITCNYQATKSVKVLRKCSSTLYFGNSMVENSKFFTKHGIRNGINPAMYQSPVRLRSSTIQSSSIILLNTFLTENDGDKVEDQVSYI

A word on the Ki: it is a dissociation constant, usually derived from enzyme kinetics or from competition with a known ligand. A low value points to tighter binding. As for `COc1cc(CC(C)N)cc(OC)c1OC` (configuration not stated), the Ki in assay [1] worked out at 0.0579 µM; in assay [2], 0.187 µM; in assay [3], 0.307 µM.

With `CCCNC(C)Cc1cc(OC)c(Br)cc1OC` (configuration not stated), the Ki in assay [2] is 0.976 µM; in assay [3] it was 0.521 µM; in assay [4], 0.514 µM.

As to `COc1cc(CC(C)N)c(OC)cc1F` (configuration not stated), the Ki in assay [1] was 0.0417 µM; in assay [2], 0.306 µM; in assay [3] it was 0.227 µM; in assay [4], 0.0287 µM.

For `COc1cc(CC(C)N)c(OC)cc1C#N` (configuration not stated), the Ki came to 0.0457 µM in assay [1], 0.877 µM in assay [2], 0.774 µM in assay [3] and 1.01 µM in assay [4].

In the case of `COc1cc(CC(C)N)c(OC)cc1Cc1ccccc1` (configuration not stated), the Ki came out at 0.0004 µM in assay [1], 0.0538 µM in assay [2], 0.035 µM in assay [3] and 0.001 µM in assay [4].

In the case of `COc1cc(C(C)=O)c(OC)cc1CC(C)N` (configuration not stated) [1-(4-acetyl-2,5-dimethoxyphenyl)-2-aminopropane], the Ki in assay [1] amounted to 0.0805 µM; in assay [2] it was 0.947 µM; in assay [3] it was 0.313 µM; in assay [4] it was 0.0913 µM.

In the case of `CCCc1cc(OC)c(CC(C)N)cc1OC` (configuration not stated) [2-(2,5-Dimethoxy-4-propyl-phenyl)-1-methyl-ethylamine(DOPR)], the Ki in assay [1] was 0.0009 µM; in assay [2], 0.115 µM; in assay [3], 0.0544 µM; in assay [4] it was 0.0011 µM.

Consider `COc1ccc(OC)c(CC(C)N)c1` (configuration not stated) [2-(2,5-Dimethoxy-phenyl)-1-methyl-ethylamine], for which the Ki in assay [3] worked out at 1.04 µM; in assay [4], 0.104 µM.

Turning to `COc1cc(CC(C)N)c(OC)cc1Br` (stereo not drawn) [2-(4-Bromo-2,5-dimethoxy-phenyl)-1-methyl-ethylamine((-)-DOB)], in assay [3], the affinity corresponds to a Ki of 0.0269 µM.

Regarding `C[C@]12CC[C@H]3[C@@H](CCC4=CC(=O)CC[C@@]43C)[C@@H]1CC[C@@H]2C(=O)CO` [(1S,2R,10S,11S,14S,15S)-14-(2-hydroxyacetyl)-2,15-dimethyltetracyclo[8.7.0.0^{2,7}.0^{11,15}]heptadec-6-en-5-one], the Ki worked out at 0.0014 µM in assay [1], 0.0268 µM in assay [2], 0.0318 µM in assay [3] and 0.002 µM in assay [4].

Consider `COCCOCCl` [CAS_3970-21-6], for which the Ki in assay [1] was 0.073 µM; in assay [2], 1.13 µM; in assay [3], 0.763 µM; in assay [4], 0.124 µM.

On to `CCCCCCc1cc(OC)c(CC(C)N)cc1OC` (configuration not stated) [DOHx], for which the Ki in assay [1] was 0.0001 µM; in assay [2], 0.049 µM; in assay [3], 0.0303 µM; in assay [4] it was 0.0007 µM.

In the case of `COc1cc([N+](=O)[O-])c(OC)cc1CC(C)N` (configuration not stated) [DON], the Ki is 0.0055 µM in assay [1], 0.248 µM in assay [2], 0.166 µM in assay [3] and 0.0224 µM in assay [4].

Turning to `COc1cc(C(C)(C)C)c(OC)cc1CC(C)N` (configuration not stated) [DOTB], the Ki in assay [1] was 0.0037 µM; in assay [2], 0.0496 µM; in assay [3], 0.0246 µM; in assay [4] it was 0.0022 µM.

Consider `COc1cc(CC(C)N(C)C)c(OC)cc1Br` (configuration not stated) [M-154], for which the Ki in assay [1] stood at 0.0942 µM; in assay [2] it was 0.683 µM; in assay [3], 0.341 µM; in assay [4] it was 0.0681 µM.

As for `COc1cc(CC(C)[N+](C)(C)C)c(OC)cc1Br` (configuration not stated) [N,N,N-trimethyl-1-(4-bromo-2,5-dimethoxyphenyl)-2-aminopropane], the Ki in assay [1] is 2.15 µM; in assay [2] it was > 10 µM; in assay [3], > 10 µM; in assay [4] it was 6.3 µM.
